The record followed here is article PMC11062922 (Nature Chemical Biology, 2023).

In one assay the target is T1, ACAD11 (Homo sapiens, UniProt Q709F0).
T1 construct: endogenous in cells
T1 sequence (Q709F0 1-780): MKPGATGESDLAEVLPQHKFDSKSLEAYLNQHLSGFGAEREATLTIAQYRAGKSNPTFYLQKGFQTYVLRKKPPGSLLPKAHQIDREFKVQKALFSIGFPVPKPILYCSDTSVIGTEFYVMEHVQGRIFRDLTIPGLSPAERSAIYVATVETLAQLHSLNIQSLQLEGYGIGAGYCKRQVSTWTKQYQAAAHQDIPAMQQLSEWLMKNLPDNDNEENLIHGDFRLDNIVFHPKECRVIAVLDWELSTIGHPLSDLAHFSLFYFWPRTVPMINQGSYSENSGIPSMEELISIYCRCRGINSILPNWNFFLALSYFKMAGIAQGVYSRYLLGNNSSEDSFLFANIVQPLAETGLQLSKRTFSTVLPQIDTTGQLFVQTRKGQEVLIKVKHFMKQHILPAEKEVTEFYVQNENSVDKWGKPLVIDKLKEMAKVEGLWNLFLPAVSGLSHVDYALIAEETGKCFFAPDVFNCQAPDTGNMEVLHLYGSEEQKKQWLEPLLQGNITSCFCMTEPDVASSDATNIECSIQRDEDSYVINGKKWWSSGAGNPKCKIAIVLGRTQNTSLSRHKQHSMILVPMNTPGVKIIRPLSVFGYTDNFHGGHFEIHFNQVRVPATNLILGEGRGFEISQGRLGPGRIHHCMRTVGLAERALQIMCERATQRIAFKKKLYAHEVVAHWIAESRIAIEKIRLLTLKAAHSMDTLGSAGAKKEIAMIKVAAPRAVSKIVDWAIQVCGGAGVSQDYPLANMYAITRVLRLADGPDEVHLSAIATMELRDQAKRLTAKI
The assay can be described thus: Kinobeads competition binding: ACAD11. To be noted: target ACAD11. The source says:
Supplement 41589_2023_1459_MOESM4_ESM.xlsx, sheet "CATDS matrix" | column: ACAD11

Another assay has as its system ADRBK1. Description: Kinobeads competition binding: ADRBK1. On the set-up: species or system human. To be noted: target ADRBK1.
The next assay deals with BRAF. The assay can be described thus: Kinobeads competition binding: BRAF. To be noted: target BRAF. The arrangement: species or system human.
A further assay deals with CAMK4. Description: Kinobeads competition binding: CAMK4.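 Also: selectivity score: engagement of this protein divided by summed engagement of all targets.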 On the set-up: species or system human. Conditions: target CAMK4.
In the next assay the test system is CDK17. The assay can be described thus: Kinobeads competition binding: CDK17. On the set-up: species or system human. To be noted: target CDK17.
The target in a further assay is T2, CDK4 (Homo sapiens, UniProt P11802).
T2 construct: endogenous in cells
The assay can be described thus: Kinobeads competition binding: CDK4. To be noted: target CDK4. The source says:
Supplement 41589_2023_1459_MOESM4_ESM.xlsx, sheet "CATDS matrix" | column: CDK4

The target of another assay is T3, CSK (Homo sapiens, UniProt P41240).
T3 construct: endogenous in cells
Description: Kinobeads competition binding: CSK. Conditions: target CSK.

The next assay addresses T4, EPHA5 (Homo sapiens, UniProt P54756).
T4 construct: endogenous in cells
The assay can be described thus: Kinobeads competition binding: EPHA5. To be noted: target EPHA5. The source says:
Supplement 41589_2023_1459_MOESM4_ESM.xlsx, sheet "CATDS matrix" | column: EPHA5

For another assay, the target named is T5, FGFR1 (Homo sapiens, UniProt P11362).
T5 construct: endogenous in cells
The assay can be described thus: Kinobeads competition binding: FGFR1. Conditions: target FGFR1. The source says:
Supplement 41589_2023_1459_MOESM4_ESM.xlsx, sheet "CATDS matrix" | column: FGFR1

A further assay concerns the target T6, FLT4 (Homo sapiens, UniProt P35916).
T6 construct: endogenous in cells
Description: Kinobeads competition binding: FLT4.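 Also: share of total target engagement due to this protein at one drug concentration.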 Conditions: target FLT4.

The test system of the next assay is HSP90AA1. The assay can be described thus: Kinobeads competition binding: HSP90AA1.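 Also: share of total target engagement due to this protein at one drug concentration.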 On the set-up: species or system human. Conditions: target HSP90AA1.
A further assay relates to MAP2K4. The assay can be described thus: Kinobeads competition binding: MAP2K4. On the set-up: species or system human. Conditions: target MAP2K4.
Another assay concerns MAP2K5. Description: Kinobeads competition binding: MAP2K5. On the set-up: species or system human. Conditions: target MAP2K5.
A further assay concerns MAP3K12. The assay can be described thus: Kinobeads competition binding: MAP3K12. The arrangement: species or system human. To be noted: target MAP3K12.
A further assay has as its system MAP4K1. The assay can be described thus: Kinobeads competition binding: MAP4K1. The arrangement: species or system human. Conditions: target MAP4K1.
For a further assay, the system named is MAP4K2. The assay can be described thus: Kinobeads competition binding: MAP4K2. The arrangement: species or system human. To be noted: target MAP4K2.
Another assay relates to MTHFD1. Description: Kinobeads competition binding: MTHFD1.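 Also: selectivity score: engagement of this protein divided by summed engagement of all targets.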 The arrangement: species or system human. Conditions: target MTHFD1.
The target of a further assay is T7, NTRK1 (Homo sapiens, UniProt P04629).
T7 construct: endogenous in cells
The assay can be described thus: Kinobeads competition binding: NTRK1. To be noted: target NTRK1.

In another assay the test system is OPA1. The assay can be described thus: Kinobeads competition binding: OPA1.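 Also: target engagement share of this target among all targets at its Kdapp concentration.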 Conditions: target OPA1. The arrangement: species or system human.
The target of a further assay is T8, PDXK (Homo sapiens, UniProt O00764).
T8 construct: a mixture of lysates from five cancer cell lines; endogenous in cells
T8 sequence (O00764 1-312): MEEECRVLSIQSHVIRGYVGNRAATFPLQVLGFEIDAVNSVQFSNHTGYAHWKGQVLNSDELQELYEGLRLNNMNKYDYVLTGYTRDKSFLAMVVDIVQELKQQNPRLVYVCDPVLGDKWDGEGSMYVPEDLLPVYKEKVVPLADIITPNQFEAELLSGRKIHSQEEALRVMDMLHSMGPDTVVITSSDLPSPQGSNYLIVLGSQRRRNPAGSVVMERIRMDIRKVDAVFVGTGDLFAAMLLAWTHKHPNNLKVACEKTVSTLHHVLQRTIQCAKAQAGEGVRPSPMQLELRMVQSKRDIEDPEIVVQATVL
Description: Kinobeads competition binding: PDXK.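 Also: share of total target engagement due to this protein at one drug concentration.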 Conditions: target PDXK. The source says: Supplement 41589_2023_1459_MOESM4_ESM.xlsx, sheet "CATDS matrix" | column: PDXK

The target of another assay is PKN3 (Homo sapiens, UniProt Q6P5Z2). Description: NanoBRET in-cell target engagement in HEK293T cells: PKN3.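 Also: Full-length PKN3 with C-terminal NanoLuc expressed in HEK293T cells, serial inhibitor dilutions competing against Kinase Tracer K5 at 500 nM, BRET read after 2 h at 37 °C.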 The format is cell-based. The arrangement: full-length PKN3, CSNK2A1 or CSNK2A2 ORF; host or cells: HEK293T.
Where [1] appears, read: HEK293T cells, in-cell target engagement, read-out: IC50 PKN3 NanoBRET.
Setting [2] is: average of replicates, read-out: Average of IC50 values NanoBRET PKN3.
The mark [3] stands for this setting: biological replicate number 1, read-out: Rep 1 IC50 NanoBRET PKN3.
Where [4] appears, read: biological replicate number 2, read-out: Rep 2 IC50 NanoBRET PKN3.
The mark [5] stands for this setting: biological replicate number 3, read-out: Rep 3 IC50 NanoBRET PKN3.
Setting [6] is: biological replicate number 4, read-out: Rep 4 IC50 NanoBRET PKN3.

Like-named read-outs stand apart in the source and are kept apart here.

T3 sequence (P41240 whole entry): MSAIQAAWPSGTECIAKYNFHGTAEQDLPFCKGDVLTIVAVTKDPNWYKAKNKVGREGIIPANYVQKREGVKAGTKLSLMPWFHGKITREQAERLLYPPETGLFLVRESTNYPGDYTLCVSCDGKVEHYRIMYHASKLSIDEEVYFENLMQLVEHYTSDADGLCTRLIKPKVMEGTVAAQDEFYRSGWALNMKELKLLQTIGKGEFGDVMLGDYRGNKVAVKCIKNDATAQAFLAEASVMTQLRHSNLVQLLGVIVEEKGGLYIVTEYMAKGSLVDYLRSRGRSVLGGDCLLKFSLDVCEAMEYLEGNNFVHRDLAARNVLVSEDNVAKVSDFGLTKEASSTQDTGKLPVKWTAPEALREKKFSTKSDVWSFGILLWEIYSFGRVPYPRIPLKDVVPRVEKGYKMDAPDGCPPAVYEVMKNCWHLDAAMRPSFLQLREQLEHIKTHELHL
T4 sequence (P54756 25-1037): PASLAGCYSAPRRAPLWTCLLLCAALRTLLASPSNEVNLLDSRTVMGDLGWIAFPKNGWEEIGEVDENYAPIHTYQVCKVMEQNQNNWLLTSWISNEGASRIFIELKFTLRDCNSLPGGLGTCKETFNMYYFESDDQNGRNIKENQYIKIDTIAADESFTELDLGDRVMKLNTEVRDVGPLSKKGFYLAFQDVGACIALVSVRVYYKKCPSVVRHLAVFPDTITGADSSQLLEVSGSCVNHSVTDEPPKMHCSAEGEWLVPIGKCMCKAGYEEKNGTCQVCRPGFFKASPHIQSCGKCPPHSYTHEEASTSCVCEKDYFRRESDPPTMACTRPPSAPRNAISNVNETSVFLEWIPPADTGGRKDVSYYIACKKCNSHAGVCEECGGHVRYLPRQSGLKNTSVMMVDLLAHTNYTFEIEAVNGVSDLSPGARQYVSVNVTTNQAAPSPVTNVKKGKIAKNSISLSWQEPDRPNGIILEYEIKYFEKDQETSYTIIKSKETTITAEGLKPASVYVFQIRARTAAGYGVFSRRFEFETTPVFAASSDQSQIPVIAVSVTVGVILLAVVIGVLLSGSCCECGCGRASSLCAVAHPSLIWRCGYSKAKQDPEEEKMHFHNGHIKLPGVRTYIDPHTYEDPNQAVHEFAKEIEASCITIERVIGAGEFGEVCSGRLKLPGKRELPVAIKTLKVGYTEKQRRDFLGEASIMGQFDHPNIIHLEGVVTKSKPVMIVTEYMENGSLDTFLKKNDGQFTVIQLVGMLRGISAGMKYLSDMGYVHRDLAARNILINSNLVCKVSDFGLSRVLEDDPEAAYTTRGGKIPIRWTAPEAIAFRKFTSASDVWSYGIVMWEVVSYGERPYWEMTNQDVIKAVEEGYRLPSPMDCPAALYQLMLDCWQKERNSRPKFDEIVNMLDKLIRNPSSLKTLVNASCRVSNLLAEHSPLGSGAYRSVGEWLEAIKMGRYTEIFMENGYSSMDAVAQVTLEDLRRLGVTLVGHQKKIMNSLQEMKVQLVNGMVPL
T5 sequence (P11362 22-822): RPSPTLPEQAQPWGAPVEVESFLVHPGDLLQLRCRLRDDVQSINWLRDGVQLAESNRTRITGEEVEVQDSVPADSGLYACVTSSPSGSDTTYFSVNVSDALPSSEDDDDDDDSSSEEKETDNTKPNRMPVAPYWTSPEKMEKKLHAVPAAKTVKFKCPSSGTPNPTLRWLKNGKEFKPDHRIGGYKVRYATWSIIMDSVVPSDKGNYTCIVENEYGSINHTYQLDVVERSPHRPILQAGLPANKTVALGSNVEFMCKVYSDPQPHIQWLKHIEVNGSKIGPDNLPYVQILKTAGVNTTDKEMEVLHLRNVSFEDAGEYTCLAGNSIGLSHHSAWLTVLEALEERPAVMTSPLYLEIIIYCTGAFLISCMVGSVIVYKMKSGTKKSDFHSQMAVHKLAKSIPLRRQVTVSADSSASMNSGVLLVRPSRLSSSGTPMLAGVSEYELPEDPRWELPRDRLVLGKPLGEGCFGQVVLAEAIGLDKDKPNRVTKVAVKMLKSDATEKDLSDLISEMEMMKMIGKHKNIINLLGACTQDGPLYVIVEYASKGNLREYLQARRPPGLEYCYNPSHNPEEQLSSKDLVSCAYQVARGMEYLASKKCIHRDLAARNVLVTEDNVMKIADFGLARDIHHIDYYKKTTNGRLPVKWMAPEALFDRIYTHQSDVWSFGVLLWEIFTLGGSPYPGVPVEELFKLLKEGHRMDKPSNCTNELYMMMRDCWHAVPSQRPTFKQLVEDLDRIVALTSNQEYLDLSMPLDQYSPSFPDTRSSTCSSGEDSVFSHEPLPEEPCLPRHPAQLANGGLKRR
T2 sequence (P11802 whole entry): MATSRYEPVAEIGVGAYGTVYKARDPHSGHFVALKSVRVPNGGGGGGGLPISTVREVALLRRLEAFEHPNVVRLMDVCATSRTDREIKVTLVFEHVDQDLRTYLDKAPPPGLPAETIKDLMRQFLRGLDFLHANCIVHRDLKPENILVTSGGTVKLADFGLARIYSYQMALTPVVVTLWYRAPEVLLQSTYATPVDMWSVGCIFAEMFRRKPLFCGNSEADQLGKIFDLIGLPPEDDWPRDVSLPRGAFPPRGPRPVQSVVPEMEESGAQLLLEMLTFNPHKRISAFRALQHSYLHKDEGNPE
T6 sequence (P35916 25-1363): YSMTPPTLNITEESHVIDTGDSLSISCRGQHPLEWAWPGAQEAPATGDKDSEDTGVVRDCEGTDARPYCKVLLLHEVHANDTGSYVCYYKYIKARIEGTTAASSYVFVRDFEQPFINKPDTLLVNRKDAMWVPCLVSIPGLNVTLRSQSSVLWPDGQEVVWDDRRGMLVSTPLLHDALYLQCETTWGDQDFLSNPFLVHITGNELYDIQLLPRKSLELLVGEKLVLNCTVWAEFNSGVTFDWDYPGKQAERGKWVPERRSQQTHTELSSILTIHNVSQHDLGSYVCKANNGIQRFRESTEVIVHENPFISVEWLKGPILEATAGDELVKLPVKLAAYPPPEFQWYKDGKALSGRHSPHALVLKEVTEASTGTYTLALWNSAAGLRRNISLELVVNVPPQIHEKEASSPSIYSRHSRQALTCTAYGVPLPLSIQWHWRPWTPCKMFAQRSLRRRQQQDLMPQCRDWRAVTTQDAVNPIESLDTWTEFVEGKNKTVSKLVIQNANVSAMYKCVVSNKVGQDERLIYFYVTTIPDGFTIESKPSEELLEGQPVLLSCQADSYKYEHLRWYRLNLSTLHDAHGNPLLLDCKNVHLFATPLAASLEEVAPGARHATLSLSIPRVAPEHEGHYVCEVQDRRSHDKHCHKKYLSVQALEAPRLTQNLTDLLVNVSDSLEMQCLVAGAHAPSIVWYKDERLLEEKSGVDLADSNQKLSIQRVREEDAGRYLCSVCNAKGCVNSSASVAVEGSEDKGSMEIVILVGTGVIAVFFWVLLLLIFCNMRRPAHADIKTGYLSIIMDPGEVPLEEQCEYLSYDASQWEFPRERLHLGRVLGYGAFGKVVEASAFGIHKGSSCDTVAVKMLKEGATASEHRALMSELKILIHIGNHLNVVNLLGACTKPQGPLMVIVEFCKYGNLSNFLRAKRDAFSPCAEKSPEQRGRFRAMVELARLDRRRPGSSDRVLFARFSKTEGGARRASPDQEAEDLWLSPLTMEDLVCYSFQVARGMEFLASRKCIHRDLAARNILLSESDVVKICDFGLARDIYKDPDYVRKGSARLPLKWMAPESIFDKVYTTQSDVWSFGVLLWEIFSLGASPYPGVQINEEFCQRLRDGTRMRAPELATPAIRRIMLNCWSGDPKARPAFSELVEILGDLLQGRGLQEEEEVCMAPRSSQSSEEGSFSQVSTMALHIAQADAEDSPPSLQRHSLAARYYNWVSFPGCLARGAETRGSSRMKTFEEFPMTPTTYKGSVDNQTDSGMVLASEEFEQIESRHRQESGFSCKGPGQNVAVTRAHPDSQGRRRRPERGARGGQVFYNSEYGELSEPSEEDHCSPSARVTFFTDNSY
Sequence of PKN3 (Q6P5Z2 whole entry): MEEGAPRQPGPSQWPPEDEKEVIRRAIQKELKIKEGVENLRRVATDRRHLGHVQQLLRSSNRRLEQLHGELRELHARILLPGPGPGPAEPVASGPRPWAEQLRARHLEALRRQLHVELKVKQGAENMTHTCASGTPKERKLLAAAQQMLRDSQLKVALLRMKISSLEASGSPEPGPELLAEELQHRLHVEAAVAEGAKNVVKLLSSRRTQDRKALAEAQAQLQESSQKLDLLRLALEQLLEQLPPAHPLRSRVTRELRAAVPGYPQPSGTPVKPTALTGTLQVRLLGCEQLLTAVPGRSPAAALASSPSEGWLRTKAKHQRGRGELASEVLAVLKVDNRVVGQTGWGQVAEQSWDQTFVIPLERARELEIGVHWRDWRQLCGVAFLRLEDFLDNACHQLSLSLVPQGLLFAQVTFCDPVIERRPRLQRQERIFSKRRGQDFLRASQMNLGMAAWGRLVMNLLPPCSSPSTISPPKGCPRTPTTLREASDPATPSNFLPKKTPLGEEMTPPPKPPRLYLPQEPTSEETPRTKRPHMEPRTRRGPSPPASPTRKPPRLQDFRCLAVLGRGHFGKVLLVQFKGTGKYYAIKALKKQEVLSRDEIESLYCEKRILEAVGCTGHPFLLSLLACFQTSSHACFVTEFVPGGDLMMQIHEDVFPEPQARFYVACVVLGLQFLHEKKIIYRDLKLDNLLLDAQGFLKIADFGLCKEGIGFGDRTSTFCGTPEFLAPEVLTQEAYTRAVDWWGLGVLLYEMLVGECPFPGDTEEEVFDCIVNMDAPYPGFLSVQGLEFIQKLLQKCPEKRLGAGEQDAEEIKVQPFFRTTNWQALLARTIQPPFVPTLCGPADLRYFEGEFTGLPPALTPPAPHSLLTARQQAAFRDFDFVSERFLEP

For the compound `CCN1CCN(Cc2ccc(Nc3ncc(F)c(-c4cc(F)c5nc(C)n(C(C)C)c5c4)n3)nc2)CC1` [Abemaciclib], the CATDS on ACAD11 came to 0; with ADRBK1 it was 0; with BRAF it was 0; in the assay on CAMK4 it was 0; with CDK17, 0.02553; at CDK4, 0. In addition, the CATDS at CSK, at EPHA5, on FGFR1, on FLT4, in the assay with HSP90AA1 and in the assay with MAP2K4 was 0 in each case. Also, the CATDS in the assay on MAP2K5, in the assay with MAP3K12, in the assay on MAP4K1, in the assay on MAP4K2, in the assay with MTHFD1 and on NTRK1 was 0 in each case. Moreover, the CATDS with OPA1 and on PDXK was 0 throughout.
Turning to `N#CC1(c2ccc(NC(=O)c3cccnc3NCc3ccncc3)cc2)CCCC1` [Apatinib], the CATDS at ACAD11, with ADRBK1, with BRAF, in the assay with CAMK4, in the assay with CDK17 and on CDK4 was 0 in each case. Also, the CATDS at CSK, at EPHA5, at FGFR1, on FLT4, in the assay on HSP90AA1 and in the assay with MAP2K4 was 0 each time. The CATDS with MAP2K5, with MAP3K12, in the assay with MAP4K1, in the assay on MAP4K2, in the assay on MTHFD1 and on NTRK1 was 0 in each case. The CATDS with OPA1 and on PDXK was 0 each time.
In the case of `NCc1ccc(-c2nc(-c3ccncc3)c(-c3ccc(Cl)c(O)c3)[nH]2)cc1` [SB-476429-A], the IC50 stood at 85 nM on PKN3 (setting [1]); 243 nM at PKN3 (setting [2]); 589 nM at PKN3 (setting [3]); 211 nM at PKN3 (setting [4]); 86.7 nM on PKN3 (setting [5]); 85.4 nM at PKN3 (setting [6]).
Turning to `CN(C)C/C=C/C(=O)Nc1cc2c(Nc3ccc(F)c(Cl)c3)ncnc2cc1O[C@H]1CCOC1` [Afatinib], the CATDS at ACAD11, at CDK4, at EPHA5, on FGFR1, with HSP90AA1 and with MTHFD1 was 0 each time. Moreover, the CATDS in the assay on OPA1 and on PDXK was 0 throughout.
For `CCn1c(-c2nonc2N)nc2c(C#CC(C)(C)O)nc(OCCNC)cc21` [GSK949675A], the IC50 on PKN3 (setting [1]) came out at 136 nM; on PKN3 (setting [2]) it was 669 nM; at PKN3 (setting [3]), 1950 nM; on PKN3 (setting [4]) it was 441 nM; at PKN3 (setting [5]) it was 149 nM.
On to `Nc1ncnc2[nH]c(-c3ccccc3)nc12` [AH5015_KCGS], for which the CATDS at ACAD11, in the assay with ADRBK1, in the assay on BRAF, with CAMK4, in the assay with CDK17 and at CDK4 was 0 in each case. The CATDS was 0 at CSK; 0.02942 on EPHA5; 0 on FGFR1; 0 on FLT4; 0 in the assay with HSP90AA1; 0 in the assay on MAP2K4. The CATDS with MAP2K5, in the assay with MAP3K12, with MAP4K1, in the assay with MAP4K2, in the assay with MTHFD1 and at NTRK1 was 0 throughout. Further, the CATDS with OPA1 and on PDXK was 0 in each case.
For `CCn1c(-c2nonc2N)nc2c(C#CC(C)(C)O)nc(OCCN)cc21` [GSK902056A], the IC50 on PKN3 (setting [1]) was 79 nM; at PKN3 (setting [2]), 99.2 nM; on PKN3 (setting [3]), 234 nM; on PKN3 (setting [4]) it was 56.5 nM; at PKN3 (setting [5]), 27 nM; at PKN3 (setting [6]), 79.2 nM.
As for `CCc1cc2c(cc1N1CCC(N3CCOCC3)CC1)C(C)(C)c1[nH]c3cc(C#N)ccc3c1C2=O` [Alectinib], the CATDS on ACAD11, in the assay with ADRBK1, in the assay on BRAF, in the assay with CAMK4, in the assay with CDK17 and on CDK4 was 0 throughout. Moreover, the CATDS at CSK, on EPHA5, at FGFR1, on FLT4, with HSP90AA1 and in the assay on MAP2K4 was 0 throughout. In addition, the CATDS in the assay on MAP2K5, with MAP3K12, with MAP4K1, in the assay on MAP4K2, in the assay with MTHFD1 and at NTRK1 was 0 throughout. Moreover, the CATDS in the assay on OPA1 and on PDXK was 0 throughout.
